Experimental data taken from PubChem BioAssay (NCI).
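Values below derive from 48-hour exposures of cells grown in 96-well plates, with endpoints linearly interpolated between the two concentrations bracketing the appropriate inhibition level. GI50: concentration for 50% inhibition of growth. TGI: concentration producing complete growth inhibition.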

Assays:
P388/ADR leukemia = experiment: NCI tumour cell line growth inhibition, 48 h
SN12K1 renal = experiment: NCI tumour cell line growth inhibition, 48 h

CCc1ccc([O-])c(C=NCCCN(C)CCCN=Cc2cc(C)ccc2[O-])c1.[Co+3].[N-]=[N+]=[N-]
GI50 (P388/ADR leukemia): 82.9 µg/mL
TGI (P388/ADR leukemia): > 150 µg/mL
GI50 (SN12K1 renal): 21.7 µg/mL
TGI (SN12K1 renal): 54.8 µg/mL
